Measurements from patent publication US20150351390A1, “COMPOSITIONS AND METHODS FOR AUXIN-ANALOG CONJUGATION” (PIONEER HI-BRED INTERNATIONAL, INC., priority 2012, published 2015).

Tests used:
[1] = test system: Soybean seeds; assay: Phytotoxicity evaluation during soybean germination; assay type: in vivo; conditions: 1 μM in germination media, 10 days
Method: To evaluate the effect of synthetic auxin conjugates in plants, 2,4-D-Asp, 2,4-D-Glu, dicamba-Asp, and dicamba-Glu were synthesized (Irvine Chemistry Laboratory, Anaheim, Calif.) and tested for auxin effects during soybean germination.
Asp and Glu conjugates of 2,4-D and dicamba were dissolved in a small quantity of Na2CO3 and ethanol, respectively, diluted in ddH2O to obtain 10 mM stock solution, and filter sterilized. Soybean seeds of a Pioneer elite germplasm were sterilized with chlorine gas as following: a) two layers of seeds were placed in a 100×25 mm plastic Petri dish; b) in an exhaust fume hood, seeds were placed into a glass desiccator with a 250 mL beaker containing 100 mL bleach (5% NaOC1) and 3.5 mL 12N HCl was slowly added to the beaker; c) the lid was sealed closed on the desiccator and the seeds sterilized for at least 24 hr.
Sterilized soybean seeds were then imbibed in ddH2O under sterile conditions at 25° C. for 24 hours before germination test. For germination test, 6-8 imbibed seeds were placed on a 100×25 mm deep Petri dish plate containing 50 ml germination media supplemented with or without auxin herbicide conjugates. 1 L seed germination media contains 3.21 g GAMBORG B-5 basal medium (PhytoTech), 20 g sucrose, 5 g tissue culture agar, and is pH adjusted to 5.7. Media was autoclaved at 121° C. for 25 min and cooled to 60° C. before the addition of auxin conjugates. Germination was carried out in a Percival growth chamber at 25° C. under 18 hr light and 6 hr dark cycle at 90 to 150 μE/m2/s and grown for 10 days.

[2] = test system: soybean seedlings; assay: Soybean seedling response to spot infiltrated auxins and conjugates; as to 1st trifoliate leaf curl: key: 0 = no phenotype; +/− = threshold; as to Chlorotic lesion @ app. Pnt: key: 0 = no phenotype; +/− = threshold; assay type: in vivo; design: 1st trifoliate leaf curl / Epinasty score: key: 0 = no phenotype; +/− = threshold; conditions: for 1st trifoliate leaf curl / Epinasty score / Chlorotic lesion @ app. Pnt: spot infiltration; for Plant response phenotype, soybean: result in words
Method: Conjugate forms of auxinic compounds when applied through spot infiltration, a needleless method to introduce exogenous agents into plant cells. Initially, various concentrations of analytical grade (98%+pure) IAA, 2,4-D, and dicamba were prepared as solutions that were applied directly to uni-foliate leaves of 9 day old soybean seedlings by spot infiltration in order to determine the range of auxinic response and severity.
Spot infiltration comprises applying a compound to be tested in composition that is applied to the surface of a plant, for example, to a leaf or other plant structure. For example, a method for testing a plant response to one or more compounds using spot infiltration comprises a) providing a composition comprising one or more compounds to be tested in a container having at least an opening for the compound enter and/or exit, and one or more elements for moving the composition into or out of the container; b) contacting at least one opening of the container with the surface of a plant and moving the composition comprising one or more compounds to at least the surface of the plant. A container and elements for moving the composition may comprise a syringe body and plunger. Moving the composition to the plant surface comprises contacting the surface with pressure sufficient for the composition to enter the cells of the plant. In an aspect, spot filtration testing comprises measuring an effect of the composition on the contacted plant and comparing that measure or effect to a plant that is not contacted with the composition.
Plant response phenotypes were documented at one day post-spot infiltration and subsequently every other day, up to nine days post treatment. […] In the studies described herein below, 5 replicate treatments for each conjugate form were conducted, along with appropriate negative controls.
(§1) Examples 9 and 10 utilized a spot infiltration method for the delivery of an herbicide directly to leaves of a plant. The method generally allows for the directed delivery of a variety of agents to a localized area of a plant, e.g. localized region of leaves, for screening or assessment purposes, e.g. to quickly assess the response of a plant to the agent. As used in the foregoing examples, the spot infiltration method was used to introduce specific herbicides or specific conjugates of the herbicides to seedling plant leaves. Following introduction of the herbicide or the appropriate conjugate, plants were observed daily for nine days for characteristics of epinasty, trifoliate leaf curly, chlorosis, and new growth recovery.
(§2) Briefly, a solution of the desired agent is prepared of the desired agent, e.g. as described above in Example 10, solutions (5% EtOH) of 1, 2.5 and 5 mM IAA. The solution is then drawn into a 1 mL BD™ slip-tip syringe, bulk, non-sterile syringe (e.g. Becton, Dickinson and Company, Product No. 301025) with 100 μL markings. The desired volume is then applied to the leaf, e.g. as described in Examples 9 and 10, with the tip of the syring against the leaf and positive pressure applied to the syringe plunger. Sufficient pressure is applied in order to infuse the area beneath the syringe opening, but not so much pressure as to cause a visible-to-the-eye puncture or hole to form in the leaf. Some run-off of solution around the syringe opening is expected. In the foregoing examples, two spots were applied to each of two leaves per seedling for soybean plants. […] In soybean, both spots per leaf were at the distal portion of the leaf about 1-2 cm apart. When the method was applied to Arabidopsis, two developmentally intermediate aged leaves were chosen per plant, and one spot infiltration was carried out per leaf.

[3] = test system: Arabidopsis ecotype Col-0 plant; assay: Arabidopsis response to spot infiltrated auxins and conjugates; assay type: in vivo, Arabidopsis thaliana; conditions: result in words
Method: The effect of auxin conjugates was assessed using Arabidoposis (Arabidopsis thialiana) ecotype Col-0 plant. Prior to studies utilizing the auxin conjugates, levels of analytical grade (98%+pure) IAA, 2,4-D and dicamba in solution were applied at various concentrations directly to developmentally similar leaves of 20-23 day old Arabidopsis seedlings by needleless syringe spot infiltration methodology, in order to determine range of auxinic response and severity. Phenotypes were documented relative to control at 1 day post-spot infiltration and subsequently every other day, up to nine days post treatment. Three concentrations were chosen based on reproducibility, and conjugated forms were then studied with 4 or more replicate treatments for each, along with appropriate negative controls (H2O and 10% EtOH).
as §1, §2
Generally, for Arabidopsis, the two leaves were chosen from opposite sides of rosette. In general, the spot infiltration method is carried out on younger plants in order to minimize experimental footprint and to maintain developmental uniformity. However, the method is not limited to use on young plants and can be easily applied to older plants as determined by the goals of a particular experiment.

| Compound | Soybean seed germination and growth [1] | 1st trifoliate leaf curl ([2]; 100 μM) | 1st trifoliate leaf curl ([2]; 250 μM) | 1st trifoliate leaf curl ([2]; 500 μM) | Plant response phenotype, soybean ([2]; 100, 250 & 500 μM) | Epinasty score ([2]; 100 μM) | Epinasty score ([2]; 250 μM) | Plant response phenotype, soybean ([2]; 500 μM) | Plant response phenotype, soybean ([2]; lower concentration than 500 μM) | Chlorotic lesion @ app. Pnt ([2]; 50 μM) | Chlorotic lesion @ app. Pnt ([2]; 100 μM) | Chlorotic lesion @ app. Pnt ([2]; 250 μM) | Plant response phenotype, soybean ([2]; 50, 100 and 250 μM) | Phenotype, Arabidopsis ([3]; 50, 100 and 250 μM) | 1st trifoliate leaf curl ([2]; 50 μM) | Epinasty score ([2]; 50 μM) | Phenotype, Arabidopsis ([3]; 100 and 250 μM, compared to dicamba alone) |
| --- | --- | --- | --- | --- | --- | --- | --- | --- | --- | --- | --- | --- | --- | --- | --- | --- | --- |
| O=C(O)C[C@H](NC(=O)COc1ccc(Cl)cc1Cl)C(=O)O [2,4-D-Asp] | seed germination and growth were normal | 0 | 0 | 0 | auxinic response nearly equivalent to that of 2,4-D |  |  |  |  |  |  |  |  |  |  |  |  |
| O=C(O)CC[C@H](NC(=O)COc1ccc(Cl)cc1Cl)C(=O)O [2,4-D-Glu] | seed germination and growth were normal | 0 | 0 | 0 | distinctly lower level of severity | +/− | +/− | modest epinasty | no discernible auxinic responses |  |  |  |  |  |  |  |  |
| COc1c(Cl)ccc(Cl)c1C(=O)O [dicamba, 3,6-dichloro-2-methoxybenzoic acid free acid] | seed germination was arrested |  |  |  |  |  |  |  |  | 0 | 0 | 0 | epinasty at day 1 and leaf curling of 1st tri-foliate | petiole epinasty and leaf curling at day one |  |  |  |
| COc1c(Cl)ccc(Cl)c1C(=O)NC(CC(=O)O)C(=O)O (centres unmarked) [dicamba-Asp] | seed germination and growth were normal | 0 | 0 |  |  | 0 | 0 |  |  | 0 | 0 | 0 | phenotypes similar to that of negative control | No obvious phenotype | 0 | 0 |  |
| COc1c(Cl)ccc(Cl)c1C(=O)NC(CCC(=O)O)C(=O)O (centres unmarked) [dicamba-Glu] | seed germination and growth were normal | 0 | 0 |  |  | 0 | 0 |  |  | 0 | 0 | 0 | phenotypes similar to that of negative control |  | 0 | 0 | modest epinasty |
